Data set [1] has as its system Acinetobacter baumannii. Nature of the data set: Antibacterial activity against wild type Acinetobacter baumannii ATCC 17978 assessed as resistant development at sub-MIC measured after 7 days of passaging by microbroth dilution method relative to control. It is filed as functional. A general note: Broth dilution looks for growth in wells or tubes with falling amounts of substance.

Data set [2] deals with Acinetobacter baumannii. In words: Antibacterial activity against novobiocin-resistant Acinetobacter baumannii ATCC 17978 mutant generated from seven serial passages by checkerboard assay. The class given is functional.
Data set [3] relates to Acinetobacter baumannii. In words: Antibacterial activity against colistin-resistant Acinetobacter baumannii ATCC 17978 mutant generated from seven serial passages by checkerboard assay. It is filed as functional.
The subject of data set [4] is Acinetobacter baumannii. In words: Antibacterial activity against novobiocin and test compound-resistant Acinetobacter baumannii ATCC 17978 mutant generated from seven serial passages in presence of novobiocin by checkerboard assay. The class given is functional.
Data set [5] relates to Acinetobacter baumannii. In words: Antibacterial activity against wild type Acinetobacter baumannii ATCC 17978 by checkerboard assay. It is filed as functional.
The subject of data set [6] is Pseudomonas aeruginosa. Nature of the data set: Synergistic antibacterial activity against wild type Pseudomonas aeruginosa PAO1 assessed as potentiation of cefotaxime-induced antibacterial effect incubated for 18 hrs by checkerboard assay. It is filed as functional, organism-based.
For data set [7], the system named is Pseudomonas aeruginosa. In words: Synergistic antibacterial activity against wild type Pseudomonas aeruginosa PAO1 assessed as potentiation of minocycline-induced antibacterial effect incubated for 18 hrs by checkerboard assay. The class given is functional, organism-based.
Data set [8] concerns Pseudomonas aeruginosa. Nature of the data set: Synergistic antibacterial activity against wild type Pseudomonas aeruginosa PAO1 assessed as potentiation of meropenem-induced antibacterial effect incubated for 18 hrs by checkerboard assay. The class given is functional, organism-based.
Data set [9] deals with HEK293. In words: Cytotoxicity against human HEK293 cells at 50 uM incubated for 48 hrs by PrestoBlue dye based fluorescence assay. It is filed as cell-based. To be noted: hek293, 48 h.
The test system of data set [10] is HepG2. In words: Cytotoxicity against human HepG2 cells at 50 uM incubated for 48 hrs by PrestoBlue dye based fluorescence assay. The class given is cell-based. Conditions: hepg2, 48 h.
Data set [11] deals with Erythrocyte. Nature of the data set: Hemolytic activity against porcine erythrocytes assessed as hemoglobin release at 1024 ug/ml incubated for 1 hr by microplate reader analysis. The class given is ADME, cell-based, Sus scrofa. Conditions: pig.
Data set [12] can be described thus: Toxicity in Galleria mellonella larvae assessed as survivability at 200 mg/kg measured every 6 hrs for 72 hrs. Conditions: in vivo. It is filed as organism-based.
Data set [13] concerns Pseudomonas aeruginosa. In words: Synergistic antibacterial activity against wild type Pseudomonas aeruginosa PAO1 assessed as potentiation of rifampicin-induced antibacterial effect incubated for 18 hrs by checkerboard assay. It is filed as functional, organism-based.
In data set [14] the test system is Pseudomonas aeruginosa. In words: Synergistic antibacterial activity against wild type Pseudomonas aeruginosa PAO1 assessed as potentiation of doxycycline-induced antibacterial effect incubated for 18 hrs by checkerboard assay. It is filed as functional, organism-based.
The test system of data set [15] is Pseudomonas aeruginosa. In words: Synergistic antibacterial activity against wild type Pseudomonas aeruginosa PAO1 assessed as potentiation of linezolid-induced antibacterial effect incubated for 18 hrs by checkerboard assay. It is filed as functional, organism-based.
Data set [16] deals with Pseudomonas aeruginosa. Nature of the data set: Synergistic antibacterial activity against wild type Pseudomonas aeruginosa PAO1 assessed as potentiation of moxifloxacin-induced antibacterial effect incubated for 18 hrs by checkerboard assay. The class given is functional, organism-based.
Data set [17] concerns Pseudomonas aeruginosa. Nature of the data set: Synergistic antibacterial activity against wild type Pseudomonas aeruginosa PAO1 assessed as potentiation of ciprofloxacin-induced antibacterial effect incubated for 18 hrs by checkerboard assay. The class given is functional, organism-based.
The subject of data set [18] is Pseudomonas aeruginosa. Nature of the data set: Synergistic antibacterial activity against wild type Pseudomonas aeruginosa PAO1 assessed as potentiation of levofloxacin-induced antibacterial effect incubated for 18 hrs by checkerboard assay. The class given is functional, organism-based.
In data set [19] the test system is Pseudomonas aeruginosa. In words: Synergistic antibacterial activity against wild type Pseudomonas aeruginosa PAO1 assessed as potentiation of aztreonam-induced antibacterial effect incubated for 18 hrs by checkerboard assay. It is filed as functional, organism-based.
The test system of data set [20] is Pseudomonas aeruginosa. In words: Synergistic antibacterial activity against wild type Pseudomonas aeruginosa PAO1 assessed as potentiation of ceftazidime-induced antibacterial effect incubated for 18 hrs by checkerboard assay. It is filed as functional, organism-based.
The test system of data set [21] is Pseudomonas aeruginosa. Nature of the data set: Synergistic antibacterial activity against wild type Pseudomonas aeruginosa PAO1 assessed as potentiation of fosfomycin-induced antibacterial effect incubated for 18 hrs by checkerboard assay. It is filed as functional, organism-based.
In data set [22] the test system is Pseudomonas aeruginosa. In words: Synergistic antibacterial activity against wild type Pseudomonas aeruginosa PAO1 assessed as potentiation of chloramphenicol-induced antibacterial effect incubated for 18 hrs by checkerboard assay. The class given is functional, organism-based.
Data set [23] has as its system Pseudomonas aeruginosa. In words: Synergistic antibacterial activity against wild type Pseudomonas aeruginosa PAO1 assessed as potentiation of clindamycin-induced antibacterial effect incubated for 18 hrs by checkerboard assay. It is filed as functional, organism-based.
For data set [24], the system named is Pseudomonas aeruginosa. In words: Synergistic antibacterial activity against wild type Pseudomonas aeruginosa PAO1 assessed as potentiation of piperacillin-induced antibacterial effect incubated for 18 hrs by checkerboard assay. The class given is functional, organism-based.
For data set [25], the system named is Pseudomonas aeruginosa. In words: Synergistic antibacterial activity against wild type Pseudomonas aeruginosa PAO1 assessed as potentiation of novobiocin-induced antibacterial effect incubated for 18 hrs by checkerboard assay. The class given is functional, organism-based.
Data set [26] relates to Pseudomonas aeruginosa. Nature of the data set: Synergistic antibacterial activity against wild type Pseudomonas aeruginosa PAO1 assessed as potentiation of tobramycin-induced antibacterial effect at <= 7.1 uM incubated for 18 hrs by checkerboard assay. It is filed as functional, organism-based.
For data set [27], the system named is Pseudomonas aeruginosa. Nature of the data set: Synergistic antibacterial activity against wild type Pseudomonas aeruginosa PAO1 assessed as potentiation of vancomycin-induced antibacterial effect at <=7.1 uM incubated for 18 hrs by checkerboard assay. The class given is functional, organism-based.
For data set [28], the system named is Pseudomonas aeruginosa. In words: Synergistic antibacterial activity against wild type Pseudomonas aeruginosa PAO1 assessed as potentiation of colistin-induced antibacterial effect at <=7.1 uM incubated for 18 hrs by checkerboard assay. It is filed as functional, organism-based.
Data set [29] has as its system Pseudomonas aeruginosa. In words: Antibacterial activity against wild type Pseudomonas aeruginosa PAO1 assessed as fractional inhibitory concentration index incubated for 18 hrs in presence of tobramycin by checkerboard assay. The class given is functional.
In data set [30] the test system is Pseudomonas aeruginosa. Nature of the data set: Antibacterial activity against wild type Pseudomonas aeruginosa PAO1 assessed as fractional inhibitory concentration index incubated for 18 hrs in presence of colistin by checkerboard assay. The class given is functional.
Data set [31] concerns Pseudomonas aeruginosa. In words: Synergistic antibacterial activity against wild type Pseudomonas aeruginosa PAO1 assessed as potentiation of rifampicin-induced antibacterial effect incubated for 18 hrs by checkerboard assay relative to rifampicin alone. The class given is functional.
Data set [32] relates to Pseudomonas aeruginosa. Nature of the data set: Synergistic antibacterial activity against wild type Pseudomonas aeruginosa PAO1 assessed as potentiation of minocycline-induced antibacterial effect incubated for 18 hrs by checkerboard assay relative to minocycline alone. The class given is functional.
In data set [33] the test system is Pseudomonas aeruginosa. Nature of the data set: Synergistic antibacterial activity against wild type Pseudomonas aeruginosa PAO1 assessed as potentiation of cefotaxime-induced antibacterial effect incubated for 18 hrs by checkerboard assay relative to cefotaxime alone. It is filed as functional.
The subject of data set [34] is Pseudomonas aeruginosa. Nature of the data set: Synergistic antibacterial activity against wild type Pseudomonas aeruginosa PAO1 assessed as potentiation of doxycycline-induced antibacterial effect incubated for 18 hrs by checkerboard assay relative to doxycycline alone. The class given is functional.
For data set [35], the system named is Pseudomonas aeruginosa. In words: Synergistic antibacterial activity against wild type Pseudomonas aeruginosa PAO1 assessed as potentiation of linezolid-induced antibacterial effect incubated for 18 hrs by checkerboard assay relative to linezolid alone. It is filed as functional.
Data set [36] has as its system Pseudomonas aeruginosa. In words: Synergistic antibacterial activity against wild type Pseudomonas aeruginosa PAO1 assessed as potentiation of meropenem-induced antibacterial effect incubated for 18 hrs by checkerboard assay relative to meropenem alone. It is filed as functional.
Data set [37] relates to Pseudomonas aeruginosa. In words: Synergistic antibacterial activity against wild type Pseudomonas aeruginosa PAO1 assessed as potentiation of moxifloxacin-induced antibacterial effect incubated for 18 hrs by checkerboard assay relative to moxifloxacin alone. It is filed as functional.
The test system of data set [38] is Pseudomonas aeruginosa. Nature of the data set: Synergistic antibacterial activity against wild type Pseudomonas aeruginosa PAO1 assessed as potentiation of ciprofloxacin-induced antibacterial effect incubated for 18 hrs by checkerboard assay relative to ciprofloxacin alone. It is filed as functional.
For data set [39], the system named is Pseudomonas aeruginosa. In words: Synergistic antibacterial activity against wild type Pseudomonas aeruginosa PAO1 assessed as potentiation of levofloxacin-induced antibacterial effect incubated for 18 hrs by checkerboard assay relative to levofloxacin alone. The class given is functional.
In data set [40] the test system is Pseudomonas aeruginosa. In words: Synergistic antibacterial activity against wild type Pseudomonas aeruginosa PAO1 assessed as potentiation of aztreonam-induced antibacterial effect incubated for 18 hrs by checkerboard assay relative to aztreonam alone. It is filed as functional.
Data set [41] has as its system Pseudomonas aeruginosa. In words: Synergistic antibacterial activity against wild type Pseudomonas aeruginosa PAO1 assessed as potentiation of ceftazidime-induced antibacterial effect incubated for 18 hrs by checkerboard assay relative to ceftazidime alone. The class given is functional.
The test system of data set [42] is Pseudomonas aeruginosa. Nature of the data set: Synergistic antibacterial activity against wild type Pseudomonas aeruginosa PAO1 assessed as potentiation of fosfomycin-induced antibacterial effect incubated for 18 hrs by checkerboard assay relative to fosfomycin alone. It is filed as functional.
Data set [43] deals with Pseudomonas aeruginosa. Nature of the data set: Synergistic antibacterial activity against wild type Pseudomonas aeruginosa PAO1 assessed as potentiation of chloramphenicol-induced antibacterial effect incubated for 18 hrs by checkerboard assay relative to chloramphenicol alone. It is filed as functional.
Data set [44] relates to Pseudomonas aeruginosa. In words: Synergistic antibacterial activity against wild type Pseudomonas aeruginosa PAO1 assessed as potentiation of clindamycin-induced antibacterial effect incubated for 18 hrs by checkerboard assay relative to clindamycin alone. The class given is functional.
Data set [45] deals with Pseudomonas aeruginosa. In words: Synergistic antibacterial activity against wild type Pseudomonas aeruginosa PAO1 assessed as potentiation of novobiocin-induced antibacterial effect incubated for 18 hrs by checkerboard assay relative to novobiocin alone. It is filed as functional.
The test system of data set [46] is Pseudomonas aeruginosa. In words: Synergistic antibacterial activity against wild type Pseudomonas aeruginosa PAO1 assessed as potentiation of piperacillin-induced antibacterial effect incubated for 18 hrs by checkerboard assay relative to piperacillin alone. The class given is functional.

The source made the active and inactive calls. The calls are words filed in the database; no cut-off is given here.

The values that follow come from ChEMBL document CHEMBL4376820, “Homodimeric Tobramycin Adjuvant Repurposes Novobiocin as an Effective Antibacterial Agent against Gram-Negative Bacteria” (J Med Chem, 2019).

One may read the MIC as the lowest concentration found to suppress growth. For the compound COLISTIN, in data set [1], the fold change (FC) was 1024. Moreover, the MIC in data set [2] was 8 µg/mL; in data set [3], 1020 µg/mL; in data set [4], 0.031 µg/mL; in data set [5], 0.063 µg/mL.

Consider `NC[C@H]1O[C@H](O[C@H]2[C@H](OCCCCCCCCn3cc(CCCCO[C@@H]4[C@@H](O[C@H]5O[C@H](CO)[C@@H](O)[C@H](N)[C@H]5O)[C@H](N)C[C@H](N)[C@H]4O[C@H]4O[C@H](CN)[C@@H](O)C[C@H]4N)nn3)[C@@H](O[C@H]3O[C@H](CO)[C@@H](O)[C@H](N)[C@H]3O)[C@H](N)C[C@@H]2N)[C@H](N)C[C@@H]1O.O=C(O)C(F)(F)F.O=C(O)C(F)(F)F.O=C(O)C(F)(F)F.O=C(O)C(F)(F)F.O=C(O)C(F)(F)F.O=C(O)C(F)(F)F.O=C(O)C(F)(F)F.O=C(O)C(F)(F)F.O=C(O)C(F)(F)F.O=C(O)C(F)(F)F`, for which the Activity result in [6] is “Dose-dependent effect”; in data set [7], “Dose-dependent effect”; in data set [8], “Dose-dependent effect”; in [9], “Non-Toxic”; in data set [10], “Non-Toxic”; in [11] it was “Non-Toxic”. Further, the Activity result was “Non-Toxic” in data set [12]; “Dose-dependent effect” in [13]; “Dose-dependent effect” in data set [14]; “Dose-dependent effect” in data set [15]; “Dose-dependent effect” in data set [16]; “Dose-dependent effect” in data set [17]. Moreover, the Activity result in data set [18], in data set [19], in data set [20], in data set [21], in data set [22] and in data set [23] was “Dose-dependent effect” throughout. Besides, the Activity result in data set [24] and in data set [25] was “Dose-dependent effect” in each case. Further, the result in data set [26], in data set [27] and in data set [28] was inactive. Further, the “fractional inhibitory concentration index (FICI)” value in [29] and in data set [30] was greater than 4 throughout. Also, the “fold change (FC)” value in data set [31], in data set [32], in data set [33], in [34], in [35] and in data set [36] was 4 - 128 each time. The “fold change (FC)” value in data set [37], in data set [38], in [39], in data set [40], in data set [41] and in data set [42] was 4 - 128 in each case. Also, the “fold change (FC)” value in data set [43], in data set [44], in data set [45] and in data set [46] was 4 - 128 throughout.
